For 14 molecules, DC50 and Dmax results are on record in patent US12427144B2, “Compounds and methods for the targeted degradation of androgen receptor” (Arvinas Operations, Inc., priority 2019, dated 2025).

Bounds are passed on as bounds.

The assay addresses T1, Androgen Receptor (AR) (Homo sapiens, UniProt P10275).
T1 construct: endogenous in cells; host or cells: VCaP
T1 sequence (P10275 1-920): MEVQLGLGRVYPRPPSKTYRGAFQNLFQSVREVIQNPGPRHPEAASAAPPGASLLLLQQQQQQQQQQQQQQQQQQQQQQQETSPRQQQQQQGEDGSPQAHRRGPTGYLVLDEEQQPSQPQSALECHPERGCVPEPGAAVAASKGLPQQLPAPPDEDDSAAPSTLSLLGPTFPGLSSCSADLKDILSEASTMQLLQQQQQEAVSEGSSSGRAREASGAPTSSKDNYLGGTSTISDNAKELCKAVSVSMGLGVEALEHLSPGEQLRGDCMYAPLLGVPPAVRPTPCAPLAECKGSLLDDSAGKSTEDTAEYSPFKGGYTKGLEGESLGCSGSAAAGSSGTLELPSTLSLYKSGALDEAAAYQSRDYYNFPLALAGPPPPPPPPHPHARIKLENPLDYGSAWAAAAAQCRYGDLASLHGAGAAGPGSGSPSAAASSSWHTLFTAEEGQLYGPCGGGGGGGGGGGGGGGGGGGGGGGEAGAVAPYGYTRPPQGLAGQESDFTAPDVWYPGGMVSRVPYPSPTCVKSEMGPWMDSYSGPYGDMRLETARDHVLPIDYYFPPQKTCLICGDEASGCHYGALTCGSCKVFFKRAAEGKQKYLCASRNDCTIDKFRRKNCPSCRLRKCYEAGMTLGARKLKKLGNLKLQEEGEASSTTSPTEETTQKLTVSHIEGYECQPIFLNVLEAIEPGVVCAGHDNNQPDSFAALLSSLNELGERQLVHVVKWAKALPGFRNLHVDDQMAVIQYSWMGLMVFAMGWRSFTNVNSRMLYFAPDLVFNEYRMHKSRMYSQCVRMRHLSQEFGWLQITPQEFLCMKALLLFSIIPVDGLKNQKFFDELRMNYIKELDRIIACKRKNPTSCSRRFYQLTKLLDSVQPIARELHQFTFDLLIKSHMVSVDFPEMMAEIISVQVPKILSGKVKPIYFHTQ
Kind of assay: AR immunofluorescence staining, high content imager, VCaP cells. The assay is classed as cell-based. The conditions noted are these: for DC50: AR degradation by immunofluorescence; for Dmax: maximal AR degradation. In a few lines:
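VCaP cells treated with compound, fixed in 4% PFA (8% 2× solution added directly for low-adherence lines), permeabilised with 0.1% Triton X-100 and blocked. Stained overnight at 4° C with anti-AR antibody, then FITC anti-rabbit secondary plus phalloidin and DAPI/Hoechst. Read by high-content imaging.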

In general, DC50 refers to the concentration giving 50% degradation. A higher DC50 goes with a less potent degrader. As usually defined, the Dmax is the greatest extent of degradation seen. Low readings indicate shallow degradation, high ones deep degradation.

On to `Cc1cc(O[C@H]2C(C)(C)[C@H](NC(=O)c3ccc(N4CCOC(CN(C(C)C)[C@H]5C[C@@H](Oc6ccc(F)c(C(=O)N[C@H]7CCC(=O)NC7=O)c6)C5)C4)cc3)C2(C)C)cc(C)c1C#N` (stereo partly drawn) [Compound 61, 4-(2-{[(propan-2-yl)[(1r,3r)-3-(3-{[(3S)-2,6-dioxopiperidin-3-yl]carbamoyl}-4-fluorophenoxy)cyclobutyl]amino]methyl}morpholin-4-yl)-N-[(1r,3r)-3-(4-cyano-3,5-dimethylphenoxy)-2,2,4,4-tetramethylcyclobutyl]benzamide], for which the DC50 is < 1 nM and the greatest degradation seen (Dmax) fell in the range of 50 to 70%.
For `COc1cc(O[C@H]2C(C)(C)[C@H](NC(=O)c3ccc(N4CCOC(CN(C(C)C)[C@H]5C[C@@H](Oc6ccc(F)c(C(=O)N[C@H]7CCC(=O)NC7=O)c6)C5)C4)cc3)C2(C)C)ccc1C#N` (stereo partly drawn) [Compound 62, 4-(2-{[(propan-2-yl)[(1r,3r)-3-(3-{[(3S)-2,6-dioxopiperidin-3-yl]carbamoyl}-4-fluorophenoxy)cyclobutyl]amino]methyl}morpholin-4-yl)-N-[(1r,3r)-3-(4-cyano-3-methoxyphenoxy)-2,2,4,4-tetramethylcyclobutyl]benzamide] the same measures were < 1 nM and 50 to 70%.
For `Cc1cc(O[C@H]2C(C)(C)[C@H](NC(=O)c3ccc(N4CC5(C4)CN([C@H]4C[C@H](Oc6ccc(C(=O)N[C@H]7CCC(=O)NC7=O)c(F)c6)C4)CCO5)cc3)C2(C)C)cc(C)c1C#N` [Compound 63, N-[(1r,3r)-3-(4-cyano-3,5-dimethylphenoxy)-2,2,4,4-tetramethylcyclobutyl]-4-{8-[(1r,3r)-3-(4-{[(3S)-2,6-dioxopiperidin-3-yl]carbamoyl}-3-fluorophenoxy)cyclobutyl]-5-oxa-2,8-diazaspiro[3.5]nonan-2-yl}benzamide], in that order: < 1 nM and 50 to 70%.
For `Cc1cc(O[C@H]2C(C)(C)[C@H](NC(=O)c3ccc(N4CCC(CN5CCOCCCCOc6cc(C(=O)NC7CCC(=O)NC7=O)ccc6O[C@H]6C[C@H]5C6)CC4)cc3)C2(C)C)cc(C)c1C#N` (stereo partly shown) [Compound 64, (1r,18r)-N-(2,6-dioxopiperidin-3-yl)-17-{[1-(4-{[(1r,3r)-3-(4-cyano-3,5-dimethylphenoxy)-2,2,4,4-tetramethylcyclobutyl]carbamoyl}phenyl)piperidin-4-yl]methyl}-2,9,14-trioxa-17-azatricyclo[16.1.1.0^3,8]icosa-3(8),4,6-triene-6-carboxamide], in that order: < 1 nM and 50 to 70%.
As to `Cc1cc(O[C@H]2C(C)(C)[C@H](NC(=O)c3ccc(N4CCO[C@@H](CN(C(C)C)[C@H]5C[C@H](Oc6ccc(C(=O)N[C@H]7CCC(=O)NC7=O)c(F)c6)C5)C4)cc3)C2(C)C)cc(C)c1C#N` [Compound 65, 4-[(2S)-2-{[(propan-2-yl)[(1r,3r)-3-(4-{[(3S)-2,6-2,2,4,4-dioxopiperidin-3-yl]carbamoyl}-3-fluorophenoxy)cyclobutyl]amino]methyl}morpholin-4-yl]-N-[(1r,3r)-3-(4-cyano-3,5-dimethylphenoxy)-2,2,4,4-tetramethylcyclobutyl]benzamide], the DC50 was < 1 nM and the Dmax was 50 to 70%.
For `COc1cc(C(=O)NC2CCC(=O)NC2=O)ccc1O[C@H]1C[C@H](N(CC2CCN(c3ccc(C(=O)N[C@H]4C(C)(C)[C@H](Oc5cc(C)c(C#N)c(C)c5)C4(C)C)cc3)CC2)C(C)C)C1` (stereo partly shown) [Compound 66, N-(2,6-dioxopiperidin-3-yl)-3-methoxy-4-[(1r,3r)-3-[(propan-2-yl)({[1-(4-{[(1r,3r)-3-(4-cyano-3,5-dimethylphenoxy)-2,2,4,4-tetramethylcyclobutyl]carbamoyl}phenyl)piperidin-4-yl]methyl})amino]cyclobutoxy]benzamide] the same measures were < 1 nM and 50 to 70%.
For `COCCN(C[C@H]1CN(c2ccc(C(=O)N[C@H]3C(C)(C)[C@H](Oc4cc(C)c(C#N)c(C)c4)C3(C)C)cc2)CCO1)[C@H]1C[C@H](Oc2ccc(C(=O)N[C@H]3CCC(=O)NC3=O)c(F)c2)C1` [Compound 67, 4-[(2S)-2-{[(2-methoxyethyl)[(1r,3r)-3-(4-{[(3S)-2,6-dioxopiperidin-3-yl]carbamoyl}-3-fluorophenoxy)cyclobutyl]amino]methyl}morpholin-4-yl]-N-[(1r,3r)-3-(4-cyano-3,5-dimethylphenoxy)-2,2,4,4-tetramethylcyclobutyl]benzamide], in that order: 1 to 10 nM and ≥ 70%.
For `Cc1cc(O[C@H]2C(C)(C)[C@H](NC(=O)c3ccc(N4CCC5(CC4)CN([C@H]4C[C@H](Oc6ccc(C(=O)NC7CCC(=O)NC7=O)cc6)C4)CCO5)cc3)C2(C)C)cc(C)c1C#N` (stereo partly shown) [Compound 68, N-[(1r,3r)-3-(4-cyano-3,5-dimethylphenoxy)-2,2,4,4-tetramethylcyclobutyl]-4-{4-[(1r,3r)-3-{4-[(2,6-dioxopiperidin-3-yl)carbamoyl]phenoxy}cyclobutyl]-1-oxa-4,9-diazaspiro[5.5]undecan-9-yl}benzamide], in that order: 1 to 10 nM and 50 to 70%.
Take `COc1cc(O[C@H]2C(C)(C)[C@H](NC(=O)c3ccc(N4CCC(CN5CCN(c6ccc(F)c(C(=O)N[C@H]7CCC(=O)NC7=O)c6)CC5)CC4)cc3)C2(C)C)ccc1C#N` [Compound 69, N-[(3S)-2,6-dioxopiperidin-3-yl]-2-fluoro-5-(4-{[1-(4-{[(1r,3r)-3-(4-cyano-3-methoxyphenoxy)-2,2,4,4-tetramethylcyclobutyl]carbamoyl}phenyl)piperidin-4-yl]methyl}piperazin-1-yl)benzamide]: the DC50 was in the range of 10 to 100 nM and the Dmax is ≥ 70%.
For `Cc1cc(O[C@H]2C(C)(C)[C@H](NC(=O)c3ccc(N4CC(CN5CC(c6ccc(C(=O)N[C@H]7CCC(=O)NC7=O)c(F)c6)C5)C4)cc3)C2(C)C)cc(C)c1C#N` [Compound 71, N-[(3S)-2,6-dioxopiperidin-3-yl]-2-fluoro-4-(1-{[1-(4-{[(1r,3r)-3-(4-cyano-3,5-dimethylphenoxy)-2,2,4,4-tetramethylcyclobutyl]carbamoyl}phenyl)azetidin-3-yl]methyl}azetidin-3-yl)benzamide], in that order: < 1 nM and 50 to 70%.
For `Cc1cc(O[C@H]2C(C)(C)[C@H](NC(=O)c3ccc(N4CCC(CN5CCOCCCCCOc6ccc(C(=O)NC7CCC(=O)NC7=O)cc6O[C@H]6C[C@H]5C6)CC4)cc3)C2(C)C)cc(C)c1C#N` (stereo partly shown) [Compound 72, (1r,19r)-N-(2,6-dioxopiperidin-3-yl)-18-{[1-(4-{[(1r,3r)-3-(4-cyano-3,5-dimethylphenoxy)-2,2,4,4-tetramethylcyclobutyl]carbamoyl}phenyl)piperidin-4-yl]methyl}-2,9,15-trioxa-18-azatricyclo[17.1.1.0^3,8]henicosa-3(8),4,6-triene-5-carboxamide], in that order: 1 to 10 nM and < 50%.
Take `Cc1cc(O[C@H]2C(C)(C)[C@H](NC(=O)c3ccc(N4CCC(O[C@H]5C[C@H](Oc6ccc(C(=O)N[C@H]7CCC(=O)NC7=O)c(F)c6)C5)CC4)cc3)C2(C)C)cc(C)c1C#N` [Compound 73, N-[(1r,3r)-3-(4-cyano-3,5-dimethylphenoxy)-2,2,4,4-tetramethylcyclobutyl]-4-{4-[(1r,3r)-3-(4-{[(3S)-2,6-dioxopiperidin-3-yl]carbamoyl}-3-fluorophenoxy)cyclobutoxy]piperidin-1-yl}benzamide]: the DC50 was 1 to 10 nM and the greatest degradation seen (Dmax) is < 50%.
For `Cc1cc(O[C@H]2C(C)(C)[C@H](NC(=O)c3ccc(N4CCC(CN5CCOCCCCOc6ccc(C(=O)NC7CCC(=O)NC7=O)cc6O[C@H]6C[C@H]5C6)CC4)cc3)C2(C)C)cc(C)c1C#N` (stereo partly shown) [Compound 74, (1r,18r)-N-(2,6-dioxopiperidin-3-yl)-17-{[1-(4-{[(1r,3r)-3-(4-cyano-3,5-dimethylphenoxy)-2,2,4,4-tetramethylcyclobutyl]carbamoyl}phenyl)piperidin-4-yl]methyl}-2,9,14-trioxa-17-azatricyclo[16.1.1.0^3,8]icosa-3(8),4,6-triene-5-carboxamide] the same measures were < 1 nM and < 50%.
For `Cc1cc(O[C@H]2C(C)(C)[C@H](NC(=O)c3ccc(N4CCO[C@@H](CN5CCN(c6ccc(C(=O)N[C@@H]7CCC(=O)NC7=O)c(F)c6)CC5)C4)cc3)C2(C)C)cc(C)c1C#N` [Compound 75, N-[(3R)-2,6-dioxopiperidin-3-yl]-2-fluoro-4-(4-{[(2S)-4-(4-{[(1r,3r)-3-(4-cyano-3,5-dimethylphenoxy)-2,2,4,4-tetramethylcyclobutyl]carbamoyl}phenyl)morpholin-2-yl]methyl}piperazin-1-yl)benzamide], in that order: 1 to 10 nM and < 50%.
